Laboratory results from patent publication US8178727B2, “Bis(arylmethylidene)acetone compound, anti-cancer agent, carcinogenesis-preventive agent, inhibitor of expression of Ki-Ras, ErbB2, c-Myc and Cycline D1, β-catenin-degrading agent, and p53 expression enhancer” (National University Corporation Tohoku University, priority 2005, dated 2012).

Experiments:
DLD-1 cells [1] = assay: Cell growth inhibition (Cell Counting Kit 8, Wst-8), 96 h exposure; type: cell-based; details: Homo sapiens, DLD-1 colon cancer cells
Description: (§1) The inhibitory efficacy of bis(arylmethylidene)-acetones on the development and growth of malignant tumor cells was examined. Curcumin and bis(arylmethylidene)-acetone compounds were dissolved in DMSO to obtain 50 mM compound solutions for storage. Sixteen human cancer cell lines (HCT116, DLD-1, SW620. LK87, PC3, MCF7, PK9, HuCCT-1, SH10TC, GCIY, G361, 8505c, HepG2, A431, ACHN, OVK18) were obtained from the Medical Cellular Resources Center of the Institute of Development, Aging, and Cancer at Tohoku University, Japan. These cells were cultured at 37° C. under 5% CO2 conditions using as a culture medium RPMI1640 (Sigma Aldrich) supplemented with 10% fetal bovine serum and kanamycin (Wako Pure Chemical Industries: final concentration, […]).
(§2) Three human colon-cancer cell lines (DLD-1, HCT116, SW620) were used in screening for cell growth inhibitory efficacy. The test compounds (bis(arylmethylidene)-acetones) were added to the culture media at the target concentrations, and exposure to the compounds was then continued for 96 hours in order to investigate not only acute cell damages but also effects on the cells, involving intracellular metabolic responses and others. The cell growth inhibitory efficacy was then evaluated with Cell Counting Kit 8 (Wst-8 Test, Dojindo Laboratories, Japan). In this analysis method, tetrazolium salt Wst-8 is degraded by reduced form nicotinamide adenine dinucleotide (nicotinamide adenine dinucleotide H; NADH). The activity of NADH is maintained only inside viable cells, and Wst-8 becomes colored upon degradation. The optical absorbance at 450 nm is measured, whereby the number of viable cells can be indirectly estimated.
(§3) Each cell line was placed on a 96-well microtiter plate at a cell density of 2500 to 5000 cells/100 μL/well in accordance with the growth rate of the cell line. After cell cultivation for 24 hours, […] medium containing each compound was added. The final concentration of each test compound is 0, 0.1, 0.25, 0.5, 1, 2.5, 5, 10, 25, 50, and 100 μM (11 levels). The maximum final concentration of DMSO used as a solvent was 1%. After culturing for 96 hours, the medium was aspirated away, followed by washing with PBS. Next, 100 μL of a medium containing a solution of Cell Counting Kit 8 at 1/10 (v/v) was added. Culturing was then continued for one hour. Thereafter, each optical absorbance at 450 nm (620 nm background) was measured with an MPR-A4i microplate reader (Tosoh, Japan). A curve of the inhibition of cell growth was constructed using the measured optical absorbances.

HCT116 cells = assay: as above; type: cell-based; details: Homo sapiens, HCT-116, HCT116 colon cancer cells
Description: as §1, §2, §3

SW620 cells = assay: as above; type: cell-based; details: Homo sapiens, SW-620, SW620 colon cancer cells
Description: as §1, §2, §3

colon-cancer cells = assay: Growth inhibition compared with anti-cancer agents 5-FU, CPT11, CDDP (FIG. 6); type: cell-based, human
Description: as §1, §3
Stored solutions of three anti-cancer agents: 5-FU, CDDP, and CPT11, prepared beforehand (1 mM), were suitably diluted prior to use, and also added to culture media.

DLD-1 cells [2] = assay: Cell cycle / apoptosis-inducing activity by flow cytometry (FACScan); type: cell-based, human
Description: The activity of test compounds in cell cycle (apoptosis-inducing activity) was analyzed with a flow cytometer (FACScan). […] The cells attached to the plates are then harvested together with the cells suspended in the medium, centrifuged, and pelleted, followed by removal of supernatants. The collected cells were washed twice with PBS, then fixed with 70% ethanol for 30 minutes or more at 4° C., then washed with PBS once more, suspended in PBS supplemented with RNaseA (final concentration: 50 μg/mL; Qiagen), and incubated for 20 minutes at 37° C. Centrifugation was performed, and the supernatant was removed, after which the nuclei were stained using a solution of propidium iodide ([…]). Filtration was then performed using a nylon mesh having a pore size of 50 μm, and a DNA histogram was analyzed with a FACScan flow cytometer ([…]). The cellular fractions of subG1 phase, G0/G1 phase, S phase, and G2/M phase were determined by calculation using macCycle (Phoenix Flow Systems).

β-catenin [3] = assay: Western blot of β-catenin degrading activity; type: cell-based, human
Description: Western-blot analysis was used to investigate effects on the expression of oncogene products, ErbB2, c-Myc, and Cyclin D1, whose activity is enhanced in a variety of cancer cells, and to investigate the activity of degrading β-catenin, which plays an important role in the initial stages of carcinogenesis to the formation and development of tumors.
(§4) Western-blot analysis was performed in the following manner:
(§5) After HCT116 cells were treated with each test compound, plate-adhered cells were recovered along with cells suspended in supernatants, centrifuged, and pelleted. The cells were then lysed with a lysis solution (40 mM Tris-HCl, 1% Triton X-100, 2 mM MgCl2) supplemented with 200-μM phenylmethanesulfonyl fluoride (PMSF), 500-μM benzamidine, and 1-μg/mL leupeptin. After the mixture was allowed to stand on ice for 30 minutes, it was centrifuged for 10 minutes at 4° C. and 10000×g, and supernatants were recovered. To the resultant supernatant was added equimolarly 2× sample buffer (0.1 M Tris-HCl (pH 6.8), 4% SDS, 20% glycerol, and 12% β-mercaptoethanol), and the mixture was shaken for 3 minutes at 4° C., then heated to 95° C. for 4 minutes, and then stored at −20° C. until use. The cell lysates were phoresed on 8% SDS-PAGE, transferred to a Hybond-P membrane (Amersham Biosciences), and made to react with various monoclonal antibodies described below.
(§6) Monoclonal antibodies: anti-actin antibody (A2066, Sigma Aldrich), anti-β-catenin antibody (6101 53, BD-transduction Laboratories), anti-p53 antibody (FL393: sc-6243HRP), anti-cyclin D1 antibody (M-20: sc-718), anti-c-Myc antibody (9E10: sc-40), anti-k-Ras-2B antibody (C-19: sc-521), and anti-c-ErbB2 antibody (A0485, DAKO Cytomation).

[4] = system: melanoma and breast cancer cells; details: Non-Patent Document 2; cited from earlier work
p53 = assay: Western blot of p53 gene product expression; type: cell-based, human; details: FIG. 11
Description: as §4, §5, §6
Curcumin is known to have activity in degrading p53 gene products. Degradation, genetic expression reduction, instability, or other deficiencies of the tumor suppressor gene p53 gene products, result in disadvantageous conditions as concerns cell malignancy and tendency to become cancerous.

colon cancer cells = details: Non-Patent Document 1; cited from earlier work
β-catenin [5] = details: Non-Patent Document 1; cited from earlier work
[6] = cited from earlier work

| SMILES | IC50 (DLD-1 cells [1]) [µM] | IC50 (HCT116 cells) [µM] | IC50 (SW620 cells) [µM] | growth inhibitory activity relative to 5-FU, CPT11 and CDDP (colon-cancer cells) | concentration arresting the cell cycle at the G2/M phase (DLD-1 cells [2]; DLD-1 cells, flow cytometry) [µM] | concentration at which β-catenin degrading activity is displayed (β-catenin [3]; FIG. 9) [µM] | concentration at which β-catenin degrading activity is displayed (β-catenin [3]; FIG. 9, listed as BDMPP) [µM] | efficacy relative to curcumin [4] [times] | sub-G1 fraction (apoptosis-induced cell death) (DLD-1 cells [2]; curcumin (20 μM in method)) | transient drop in expression of p53 6 to 12 hours after administration (p53) | concentration inhibiting the growth of colon cancer cells (colon cancer cells) [µM] | concentration degrading β-catenin (β-catenin [5]) [µM] | water-solubility [6] |
| --- | --- | --- | --- | --- | --- | --- | --- | --- | --- | --- | --- | --- | --- |
| COc1ccc(C=CC(=O)C=Cc2ccc(OC)c(OC)c2)cc1OC [GO-035, 1,5-Bis(3,4-dimethoxyphenyl)-penta-1,4-dien-3-one, reference compound] | 2 | 2.5 | 3.5 | much stronger | 5 | 5.0 | 5 | 1.3 to 2.1 |  |  |  |  |  |
| COc1cc(/C=C/C(=O)CC(=O)/C=C/c2ccc(O)c(OC)c2)ccc1O [curcumin, (1E,6E)-1,7-bis(4-hydroxy-3-methoxyphenyl)-1,6-heptadiene-3,5-dione, reference compound] | 8 | 8 | 10 |  |  | 20.0 |  |  | not substantially observed | transient drop | 20 | 15 | poor |
